Data: patent publication US9227971B2, “Pyrazolo[1,5-a]pyrimidine compounds as mTOR inhibitors” (Merck Sharp & Dohme Corp., priority 2010, dated 2016)

Tests used:
[1] = test system: phosphorylated AKT Ser473 (pAKT S473), mTORC2 activity, PC3 cells; experiment: mTOR target engagement assay, immunofluorescent cell-based, pAKT S473 readout (mTORC2 activity); settings: Homo sapiens, PC-3, Table 3-1; PC3 cells
Outline: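 After blocking, cells were stained overnight at 4 °C with anti-pAKT S473 antibody, then a fluorescent secondary; inhibition was read as reduced fluorescence intensity.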

[2] = test system: phosphorylated 4E-BP1 Thr37/46 (p4E-BP1 Thr37/46), mTORC1 activity, PC3 cells; experiment: mTOR target engagement assay, immunofluorescent cell-based, p4E-BP1 Thr37/46 readout (mTORC1 activity); settings: Homo sapiens, PC-3, Table 3-1; PC3 cells; read-out: p4E-BP1 Thr37/46 IC50
Outline: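 Read-out is fluorescence intensity of immunostained p4E-BP1 Thr37/46 in fixed PC3 cells, fitted to a logistic curve for IC50 with DMSO-only wells as top. Cells had been exposed to serial compound dilutions for ninety minutes at 37° C in 5% FBS medium with 0.25% DMSO.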

Row | Structure (SMILES) | IC50 [1] | IC50 [2]
1 | CS(=O)(=O)c1c([C@@H]2C[C@H]3CC[C@@H](C2)N3C(=O)[C@H]2COC(=O)N2)nc2c(-c3ccc(-c4ccccc4)nc3)cnn2c1N [Compound 3.142, (R)-4-((1R,3S,5S)-3-(7-amino-6-(methylsulfonyl)-3-(6-phenylpyridin-3-yl)pyrazolo[1,5-a]pyrimidin-5-yl)-8-azabicyclo[3.2.1]octane-8-carbonyl)oxazolidin-2-one] | 0.1 to 1 µM | 0.1 to 1 µM
2 | CS(=O)(=O)c1c([C@@H]2C[C@H]3CC[C@@H](C2)N3C(=O)c2ccnc(N)n2)nc2c(-c3ccc(-c4ccccc4)nc3)cnn2c1N [Compound 3.143, ((1R,3s,5S)-3-(7-amino-6-(methylsulfonyl)-3-(6-phenylpyridin-3-yl)pyrazolo[1,5-a]pyrimidin-5-yl)-8-azabicyclo[3.2.1]octan-8-yl)(2-aminopyrimidin-4-yl)methanone] | 0.1 to 1 µM | 0.1 to 1 µM
3 | COc1ccc(-c2ncc(-c3cnn4c(N)c(S(C)(=O)=O)c([C@@H]5C[C@H]6CC[C@@H](C5)N6C(=O)c5nnc[nH]5)nc34)cn2)cc1F [Compound 3.147, ((1R,3s,5S)-3-(7-amino-3-(2-(3-fluoro-4-methoxyphenyl)pyrimidin-5-yl)-6-(methylsulfonyl)pyrazolo[1,5-a]pyrimidin-5-yl)-8-azabicyclo[3.2.1]octan-8-yl)(4H-1,2,4-triazol-3-yl)methanone] | 1 to 10 µM | 1 to 10 µM
4 | COc1ccc(-c2ncc(-c3cnn4c(N)c(S(C)(=O)=O)c([C@@H]5C[C@H]6CC[C@@H](C5)N6C(=O)c5nnc[nH]5)nc34)cn2)c(F)c1F [Compound 3.148, ((1R,3s,5S)-3-(7-amino-3-(2-(2,3-difluoro-4-methoxyphenyl)pyrimidin-5-yl)-6-(methylsulfonyl)pyrazolo[1,5-a]pyrimidin-5-yl)-8-azabicyclo[3.2.1]octan-8-yl)(4H-1,2,4-triazol-3-yl)methanone] | 0.1 to 1 µM | 0.1 to 1 µM
5 | COc1ccc(-c2ncc(-c3cnn4c(N)c(S(C)(=O)=O)c([C@@H]5C[C@H]6CC[C@@H](C5)N6C(=O)CO)nc34)cn2)c(F)c1F [Compound 3.149, 1-((1R,3s,5S)-3-(7-amino-3-(2-(2,3-difluoro-4-methoxyphenyl)pyrimidin-5-yl)-6-(methylsulfonyl)pyrazolo[1,5-a]pyrimidin-5-yl)-8-azabicyclo[3.2.1]octan-8-yl)-2-hydroxyethanone] | 1 to 10 µM | 0.1 to 1 µM
6 | CS(=O)(=O)c1c([C@@H]2C[C@H]3CC[C@@H](C2)N3C(=O)c2nnc[nH]2)nc2c(-c3ccc(-n4cccn4)nc3)cnn2c1N [Compound 3.150, ((1R,3s,5S)-3-(3-(6-(1H-pyrazol-1-yl)pyridin-3-yl)-7-amino-6-(methylsulfonyl)pyrazolo[1,5-a]pyrimidin-5-yl)-8-azabicyclo[3.2.1]octan-8-yl)(4H-1,2,4-triazol-3-yl)methanone] | 0.001 to 0.1 µM | 0.001 to 0.1 µM
7 | CC(C)(O)c1ncc(-c2cnn3c(N)c(S(C)(=O)=O)c([C@@H]4C[C@H]5CC[C@@H](C4)N5C(=O)c4nnc[nH]4)nc23)cn1 [Compound 3.152, ((1R,3s,5S)-3-(7-amino-3-(2-(2-hydroxypropan-2-yl)pyimidin-5-yl)-6-(methylsulfonyl)pyrazolo[1,5-a]pyrimidin-5-yl)-8-azabicyclo[3.2.1]octan-8-yl)(4H-1,2,4-triazol-3-yl)methanone] | 1 to 10 µM | 1 to 10 µM
8 | CS(=O)(=O)c1c([C@@H]2C[C@H]3CC[C@@H](C2)N3C(=O)CO)nc2c(-c3ccc(-n4cccn4)nc3)cnn2c1N [Compound 3.153, 1-((1R,3s,5S)-3-(3-(6-(1H-pyrazol-1-yl)pyridin-3-yl)-7-amino-6-(methylsulfonyl)pyrazolo[1,5-a]pyrimidin-5-yl)-8-azabicyclo[3.2.1]octan-8-yl)-2-hydroxyethanone] | 0.1 to 1 µM | 1 to 10 µM
9 | CS(=O)(=O)c1c([C@@H]2C[C@H]3CC[C@@H](C2)N3C(=O)c2nnc[nH]2)nc2c(-c3ccc(C(N)=O)c(F)c3)cnn2c1N [Compound 3.155, 4-(5-((1R,3s,5S)-8-(4H-1,2,4-triazole-3-carbonyl)-8-azabicyclo[3.2.1]octan-3-yl)-7-amino-6-(methylsulfonyl)pyrazolo[1,5-a]pyrimidin-3-yl)-2-fluorobenzamide] | > 10 µM | 1 to 10 µM
10 | CS(=O)(=O)c1c([C@@H]2C[C@H]3CC[C@@H](C2)N3C(=O)CO)nc2c(-c3ccc(C(N)=O)c(F)c3)cnn2c1N [Compound 3.156, 4-(7-amino-5-((1R,3a,5S)-8-(2-hydroxyacetyl)-8-azabicyclo[3.2.1]octan-3-yl)-6-(methylsulfonyl)pyrazolo[1,5-a]pyrimidin-3-yl)-2-fluorobenzamide] | > 10 µM | 1 to 10 µM
11 | Cc1cc(-c2cnn3c(N)c(S(C)(=O)=O)c([C@@H]4C[C@H]5CC[C@@H](C4)N5C(=O)c4nnc[nH]4)nc23)cnc1C(C)(C)O [Compound 3.157, ((1R,3s,5S)-3-(7-amino-3-(6-(2-hydroxypropan-2-yl)-5-methylpyridin-3-yl)-6-(methylsulfonyl)pyrazolo[1,5-a]pyrimidin-5-yl)-8-azabicyclo[3.2.1]octan-8-yl)(4H-1,2,4-triazol-3-yl)methanone] | 0.001 to 0.1 µM | 0.001 to 0.1 µM
12 | CC(C)(O)c1ncc(-c2cnn3c(N)c(S(C)(=O)=O)c([C@@H]4C[C@H]5CC[C@@H](C4)N5C(=O)c4nnc[nH]4)nc23)cc1Cl [Compound 3.158, ((1R,3s,5S)-3-(7-amino-3-(5-chloro-6-(2-hydroxypropan-2-yl)pyridin-3-yl)-6-(methylsulfonyl)pyrazolo[1,5-a]pyrimidin-5-yl)-8-azabicyclo[3.2.1]octan-8-yl)(4H-1,2,4-triazol-3-yl)methanone] | 0.001 to 0.1 µM | 0.001 to 0.1 µM
13 | Nc1c(S(=O)(=O)C2CC2)c([C@@H]2C[C@H]3CC[C@@H](C2)N3C(=O)c2nnc[nH]2)nc2c(-c3ccc(-c4ccccc4)nc3)cnn12 [Compound 3.160, ((1R,3s,5S)-3-(7-amino-6-(cyclopropylsulfonyl)-3-(6-phenylpyridin-3-yl)pyrazolo[1,5-a]pyrimidin-5-yl)-8-azabicyclo[3.2.1]octan-8-yl)(4H-1,2,4-triazol-3-yl)methanone] | 0.001 to 0.1 µM | 0.1 to 1 µM
14 | CCS(=O)(=O)c1c([C@@H]2C[C@H]3CC[C@@H](C2)N3C(=O)c2nnc[nH]2)nc2c(-c3ccc(-c4ccccc4)nc3)cnn2c1N [Compound 3.161, ((1R,3s,5S)-3-(7-amino-6-(ethylsulfonyl)-3-(6-phenylpyridin-3-yl)pyrazolo[1,5-a]pyrimidin-5-yl)-8-azabicyclo[3.2.1]octan-8-yl)(4H-1,2,4-triazol-3-yl)methanone] | 0.001 to 0.1 µM | 0.001 to 0.1 µM
15 | CCCS(=O)(=O)c1c([C@@H]2C[C@H]3CC[C@@H](C2)N3C(=O)c2nnc[nH]2)nc2c(-c3ccc(-c4ccccc4)nc3)cnn2c1N [Compound 3.162, ((1R,3s,5S)-3-(7-amino-3-(6-phenylpyridin-3-yl)-6-(propylsulfonyl)pyrazolo[1,5-a]pyrimidin-5-yl)-8-azabicyclo[3.2.1]octan-8-yl)(4H-1,2,4-triazol-3-yl)methanone] | 0.1 to 1 µM | 0.1 to 1 µM
